Assay [1] addresses Recombinant human GR (Homo sapiens (Human), UniProt P04150). The experiment in a line: GR competitive binding assay by fluorescence polarization. Particulars: 20 μM test compound solution, 10 μL/well; 2 hours; DEX positive control; read-out: GR binding rate (%). The method, then:
In order to evaluate a binding activity of the present compound to GR, a GR receptor competitor assay was carried out by a fluorescence polarization method. In the assay, a GR competitive binding assay kit (manufactured by Invitrogen, cat No. P2816) was used for the assay, and a procedure was carried out according to the protocol attached to the kit. Hereinafter, the specific method will be described.
GR screening buffer: A buffer containing 10 mM of potassium phosphate (pH 7.4), 20 mM of sodium molybdate (Na2MoO4), 0.1 mM of ethylene diamine tetraacetic acid (EDTA), 5 mM of dithiothreitol (DTT), 0.1 mM of stabilizing peptide and 2% of dimethylsulfoxide was prepared.
4×GS1 solution: Fluormone™ GS1, which is a fluorescent glucocorticoid ligand, was diluted with GR screening buffer, whereby a 4 nM solution was prepared.
4×GR solution: Recombinant human GR was diluted with GR screening buffer, whereby a 16 nM solution was prepared.
After a test compound was dissolved in dimethylsulfoxide, the resulting solution was diluted with GR screening buffer, whereby a 20 μM test compound solution was prepared. In addition, DEX was similarly dissolved, whereby a DEX solution with a […] concentration was prepared, and the solution was diluted with GR screening buffer, whereby a 2 mM DEX solution was prepared. DEX was used as positive control.
• 1) The test compound solution was added in an amount of 10 μL into each well of a 384-well plate. • 2) 4×GS1 solution and 4×GR solution were added in an amount of 5 μL into each well, respectively. • 3) GR screening buffer was added in an amount of 10 μL/well into each well in place of the test compound solution, which was made a negative control. • 4) A 2 mM of DEX was added in an amount of 10 μL/well into each well in place of the test compound solution, which was made a positive control. • 5) The plate was incubated in a dark place at room temperature for 2 hours, and fluorescence polarization of each well was measured. (Calculation Equation of GR Binding Ratio)
A GR binding ratio (%) was calculated from the following equation. GR binding ratio (%)=100×{1−(fluorescence polarization of test compound solution−average value of fluorescence polarization of positive control solution)/(average value of fluorescence polarization of negative control solution−average value of fluorescence polarization of positive control solution)}

For assay [2], the system named is TNFα production in rat whole blood. Briefly: TNFα production inhibitory action evaluation test (LPS stimulation ex vivo, ELISA). It counts as cell-based. The following applies: 20 hours, 200 μM test compound solution 10 μL/well, DEX treated group = 100, read-out: TNFα production inhibitory ratio (% DEX). The method, then: In order to evaluate an action of the present compound as a GR agonist, a TNFα production inhibitory action in rat whole blood after LPS stimulation ex vivo was investigated. For the measurement of the TNFα production amount, the ELISA method (manufactured by R&D Systems, Cat No. RTA00) was used, and a procedure was carried out according to the protocol attached thereto. Hereinafter, the specific method will be described.
LPS solution: LPS was dissolved in PBS(−) and diluted with RPMI 1640 to prepare an LPS solution with a concentration of 2 μg/mL.
After the test compound was dissolved in dimethylsulfoxide, the solution was diluted with PBS(−) to prepare 200 μM of a test compound solution. In addition, DEX was similarly dissolved to prepare 200 μM of a DEX solution, and a TNFα production inhibitory ratio of DEX was measured, and used for calculation of Efficacy (% DEX).
• 1) Blood was collected from 3 to 5 rats using an injection syringe treated with heparin from the abdominal aorta under isoflurane anesthesia. The rats confirmed death after lething the whole blood. • 2) The blood of 3 to 5 rats pooled in a 96-well round bottom culture plate was seeded at each 180 μL/well. • 3) It was cultured (37° C., 5% CO2, 95% air) for about 1 hour. • 4) The test compound solution was added each 10 μL/well, and cultured for 1 hour. • 5) LPS solution was added each 10 μL/well. • 6) The sample in which 2% dimethylsulfoxide-containing PBS(−) was added with each 10 μL/well in place of each test compound solution, and RPMI 1640 was added with each 10 μL/well in place of the LPS solution was made a negative control. • 7) The sample in which 2% dimethylsulfoxide-containing PBS(−) was added with each 10 μL/well in place of each test compound solution was made a positive control. • 8) After completion of 20 hours cultivation, the supernatant was recovered and the amount of TNFα released in the supernatant was measured by using an ELISA Kit. • 9) The TNFα production inhibitory ratio was calculated according to the following calculation formula. (Calculation of TNFα Production Inhibitory Ratio)
TNFα production inhibitory ratio (%) was calculated according to the following formula. TNFα production inhibitory ratio (%)=100×{1−(TNFα production amount of each test compound solution−average value of TNFα production amount of negative control group)/(average value of TNFα production amount of positive control group−average value of TNFα production amount of negative control group)}(%)
Further, a TNFα production inhibitory ratio (Efficacy (% DEX)) when the DEX treated group was made 100 was calculated. Efficacy (% DEX)=100×{(average value of TNFα production inhibitory ratio of each test compound solution)/(average value of TNFα production inhibitory ratio of DEX treated group)}(%)
On the technique in general: In an ELISA, binding on a coated surface is turned into a signal by an enzyme label.

The test system of assay [3] is ovalbumin actively sensitized allergic conjunctivitis model of rabbits. The experiment in a line: Allergic conjunctivitis model evaluation test. It counts as in vivo, rabbit. The following applies: 1% suspension, eye drop 50 μL four times a day for 4 days plus once; 0.5 hour after challenge. The method, then: In order to evaluate an anti-allergic action of the present compounds on allergic conjunctivitis, an inhibitory effect on hyperemia in an ovalbumin actively sensitized allergic conjunctivitis model of rabbits was investigated. Incidentally, this effect was evaluated by calculating an inhibitory ratio from the score of the base agent administered group (control group) and the score of the test compound administered group.
A base agent containing a general additive(s) was added to the test compound to prepare test compound suspensions with 1% (WN) and 3% (W/V).
By using male JW rabbits, ovalbumin (200 μg/mL/physiological saline solution) adsorbed on aluminum hydroxide gel was injected 200 μL per eye into bulbar conjunctiva of both eyes of rabbits, respectively, to perform active sensitization.
After 14 days from sensitization or later, the test compound suspension was eye-dropped four times a day for 4 days, and then, at the next day, it was eye-dropped (instillation dose: 50 μL/time) once to both eyes. Incidentally, the base agent was similarly eye-dropped to the base agent administered group (control group).
One hour after the final eye dropping of the test compound suspension, a physiological saline solution containing 0.02% (W/V) of ovalbumin was administered from rabbit ear vein at a dose of 1.5 mL per 1 kg of rabbit to induce allergic conjunctivitis.
After 0.5 hour of the challenge, the degree of hyperemia symptoms of both ocular conjunctiva of rabbits was evaluated according to the following criteria, and the average value of the total of these scores was calculated. […]

Experimental findings from patent US10189796B2, “[4-(1,3,3-trimethyl-2-oxo-3,4-dihydro-1H-quinoxalin-7-yl)phenoxy]ethyloxy compound or salt thereof” (SANTEN PHARMACEUTICAL CO., LTD., priority 2015, dated 2019) are described below.

Structures are written as SMILES. A value given as a limit tells only on which side of the number the result lay.

Sequence of Recombinant human GR (P04150 whole entry): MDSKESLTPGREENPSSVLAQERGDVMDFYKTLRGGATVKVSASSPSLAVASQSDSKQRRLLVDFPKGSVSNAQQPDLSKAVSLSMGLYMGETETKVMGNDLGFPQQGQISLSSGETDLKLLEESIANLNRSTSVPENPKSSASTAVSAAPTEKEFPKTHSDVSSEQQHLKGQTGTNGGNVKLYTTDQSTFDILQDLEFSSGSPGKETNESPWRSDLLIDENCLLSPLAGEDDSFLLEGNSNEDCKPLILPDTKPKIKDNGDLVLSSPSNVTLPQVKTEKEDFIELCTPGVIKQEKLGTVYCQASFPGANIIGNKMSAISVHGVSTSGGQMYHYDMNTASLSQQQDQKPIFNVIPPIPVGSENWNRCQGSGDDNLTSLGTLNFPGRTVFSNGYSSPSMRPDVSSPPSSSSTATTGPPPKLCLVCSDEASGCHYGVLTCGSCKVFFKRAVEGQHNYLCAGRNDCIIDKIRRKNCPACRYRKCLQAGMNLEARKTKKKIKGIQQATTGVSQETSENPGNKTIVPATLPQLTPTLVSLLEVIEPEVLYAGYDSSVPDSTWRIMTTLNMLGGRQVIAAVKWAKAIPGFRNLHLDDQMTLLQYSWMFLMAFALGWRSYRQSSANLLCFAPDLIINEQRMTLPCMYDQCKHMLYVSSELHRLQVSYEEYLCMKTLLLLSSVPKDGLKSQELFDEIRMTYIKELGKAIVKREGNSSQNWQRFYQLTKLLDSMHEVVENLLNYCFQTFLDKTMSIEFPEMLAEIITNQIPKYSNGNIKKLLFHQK

Take `COc1cc(OC[C@H](C)OP(=O)(O)O)ccc1-c1ccc2c(c1COc1cc(F)ccc1C)N(C)C(=O)C(C)(C)N2` [Compound 14-1, (S)-8-(5-fluoro-2-methylphenoxymethyl)-7-[4-(2-phosphonohydroxypropyl)oxy-2-methoxyphenyl]-1,3,3-trimethyl-3,4-dihydro-1H-quinoxalin-2-one]: in assay [1], the inhibition at 10 µM was over 99%. Also, the Emax in assay [2] was 86%. The “Eye congestion inhibitory ratio (%)” value in assay [3] was 22%.
